Laboratory results taken from article PMC10545696, “Fast functional mapping of ligand-gated ion channels” (Communications Biology, 2023).

Target: T1, P2X2 (His-rP2x2-StrepII) (Rattus norvegicus, UniProt P49653)
T1 construct: gene P2rx2; His tag and StrepII tag; homotrimer
T1 sequence (P49653 1-472): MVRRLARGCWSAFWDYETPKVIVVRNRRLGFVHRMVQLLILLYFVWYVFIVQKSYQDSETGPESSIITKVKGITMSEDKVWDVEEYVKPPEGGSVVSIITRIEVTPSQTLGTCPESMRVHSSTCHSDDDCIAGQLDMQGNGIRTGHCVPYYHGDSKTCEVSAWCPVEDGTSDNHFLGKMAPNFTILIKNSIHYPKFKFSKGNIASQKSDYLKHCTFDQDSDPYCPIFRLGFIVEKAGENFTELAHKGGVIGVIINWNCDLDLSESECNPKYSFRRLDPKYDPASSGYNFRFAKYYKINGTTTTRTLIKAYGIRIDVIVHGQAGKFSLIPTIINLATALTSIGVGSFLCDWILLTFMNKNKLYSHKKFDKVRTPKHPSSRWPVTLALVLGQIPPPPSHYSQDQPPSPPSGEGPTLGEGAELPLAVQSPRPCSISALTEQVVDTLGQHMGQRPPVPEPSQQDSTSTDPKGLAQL
Assay: whole-cell patch clamp, HEK293, multi-step microfluidic application
Type: cell-based

Nc1ncnc2c1ncn2[C@@H]1O[C@H](COP(=O)(O)OP(=O)(O)OP(=O)(O)O)[C@@H](O)[C@H]1O [ATP]
EC50: 1500 ± 20 nM
